Measurements: ChEMBL document CHEMBL1126870, “The crystal structure, absolute configuration, and phosphodiesterase inhibitory activity of (+)-1-(4-bromobenzyl)-4-(3-(cyclopentyloxy)- 4-methoxyphenyl)-pyrrolidin-2-one” (J Med Chem, 1993)

Target: Phosphodiesterase 4 (Homo sapiens, UniProt P27815+Q08499+Q07343+Q08493)
Test: Inhibition of partially-purified PDE 4 from human monocytes

SMILES | IC50 [nM]
COc1ccc([C@@H]2CC(=O)N(Cc3ccc(Br)cc3)C2)cc1OC1CCCC1 | 170
COc1ccc([C@H]2CC(=O)N(Cc3ccc(Br)cc3)C2)cc1OC1CCCC1 | 740
